Test results as given in PubChem BioAssay (NCI).
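The concentration for 50% growth inhibition is given as GI50. Definition used: TGI = concentration required for complete inhibition of growth.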

Columns and labels:
Assay in all cases: DTP human tumour cell line panel, 384-well format
[1] = tested on: 786-0 renal
[2] = tested on: A498 renal
[3] = tested on: A549 NSCLC
[4] = tested on: ACHN renal
[5] = tested on: BT-549 breast
[6] = tested on: CAKI-1 renal
[7] = tested on: COLO 205 colon
[8] = tested on: DU-145 prostate
[9] = tested on: EKVX NSCLC
[10] = tested on: HCC-2998 colon
[11] = tested on: HCT-116 colon
[12] = tested on: HCT-15 colon
[13] = tested on: HL-60(TB) leukemia
[14] = tested on: HOP-62 NSCLC
[15] = tested on: HOP-92 NSCLC
[16] = tested on: HS 578T breast
[17] = tested on: HT29 colon
[18] = tested on: IGROV1 ovarian
[19] = tested on: KM12 colon
[20] = tested on: LOX IMVI melanoma
[21] = tested on: M14 melanoma
[22] = tested on: MALME-3M melanoma
[23] = tested on: MCF7 breast
[24] = tested on: MDA-MB-231 breast
[25] = tested on: MDA-MB-435 melanoma
[26] = tested on: MDA-MB-468 breast
[27] = tested on: MOLT-4 leukemia
[28] = tested on: NCI-H226 lung
[29] = tested on: NCI-H23 lung
[30] = tested on: NCI-H322M lung
[31] = tested on: NCI-H460 NSCLC
[32] = tested on: NCI-H522 lung
[33] = tested on: NCI/ADR-RES ovarian
[34] = tested on: OVCAR-3 ovarian
[35] = tested on: OVCAR-4 ovarian
[36] = tested on: OVCAR-5 ovarian
[37] = tested on: OVCAR-8 ovarian
[38] = tested on: PC-3 prostate
[39] = tested on: RPMI-8226 leukemia
[40] = tested on: RXF 393 renal
[41] = tested on: SF-268 CNS
[42] = tested on: SF-295 CNS
[43] = tested on: SF-539 CNS
[44] = tested on: SK-MEL-28 melanoma
[45] = tested on: SK-MEL-5 melanoma
[46] = tested on: SK-OV-3 ovarian
[47] = tested on: SN12C renal
[48] = tested on: SNB-19 CNS
[49] = tested on: SNB-75 CNS
[50] = tested on: SR leukemia
[51] = tested on: SW-620 colon
[52] = tested on: TK-10 renal
[53] = tested on: U251 glioblastoma
[54] = tested on: UACC-257 melanoma
[55] = tested on: UACC-62 melanoma
[56] = tested on: UO-31 renal

**Q.** `O=C(c1ccc(OCCN2CCCCC2)cc1)c1c(-c2ccc(O)cc2)sc2cc(O)ccc12` was tested. Which GI50 [1] did it give?
**A.** 1.55 µM

**Q.** What about the TGI [1] of the same compound?
**A.** 2.94 µM

**Q.** What about the GI50 [2] of the same compound?
**A.** 2.11 µM

**Q.** And the TGI [2]?
**A.** 4.43 µM

**Q.** What about the GI50 [3] of the same compound?
**A.** 4.42 µM

**Q.** And the TGI [3]?
**A.** 15.4 µM

**Q.** What about the GI50 [4] of the same compound?
**A.** 4.02 µM

**Q.** And the TGI [4]?
**A.** 12.9 µM

**Q.** What about the GI50 [5] of the same compound?
**A.** 1.59 µM

**Q.** And the TGI [5]?
**A.** 3.74 µM

**Q.** What about the GI50 [6] of the same compound?
**A.** 2.15 µM

**Q.** What about the TGI [6] of the same compound?
**A.** 5.11 µM

**Q.** What about the GI50 [7] of the same compound?
**A.** 17.1 µM

**Q.** And the TGI [7]?
**A.** 30.9 µM

**Q.** And the GI50 [8]?
**A.** 10.8 µM

**Q.** And the TGI [8]?
**A.** 22.7 µM

**Q.** And the GI50 [9]?
**A.** 6.23 µM

**Q.** What about the TGI [9] of the same compound?
**A.** 18.5 µM

**Q.** And the GI50 [10]?
**A.** 3.71 µM

**Q.** What about the TGI [10] of the same compound?
**A.** 12.3 µM

**Q.** And the GI50 [11]?
**A.** 3.39 µM

**Q.** And the TGI [11]?
**A.** 12.3 µM

**Q.** What about the GI50 [12] of the same compound?
**A.** 1.26 µM

**Q.** And the TGI [12]?
**A.** 3.51 µM

**Q.** And the GI50 [13]?
**A.** 1.83 µM

**Q.** What about the TGI [13] of the same compound?
**A.** 3.25 µM

**Q.** What about the GI50 [14] of the same compound?
**A.** 3.31 µM

**Q.** And the TGI [14]?
**A.** 10.8 µM

**Q.** And the GI50 [15]?
**A.** 2.04 µM

**Q.** What about the TGI [15] of the same compound?
**A.** 5.03 µM

**Q.** What about the GI50 [16] of the same compound?
**A.** 2.5 µM

**Q.** And the TGI [16]?
**A.** 6.72 µM

**Q.** What about the GI50 [17] of the same compound?
**A.** 5.05 µM

**Q.** And the TGI [17]?
**A.** 16.8 µM

**Q.** What about the GI50 [18] of the same compound?
**A.** 2.75 µM

**Q.** What about the TGI [18] of the same compound?
**A.** 7.87 µM

**Q.** And the GI50 [19]?
**A.** 4.09 µM

**Q.** And the TGI [19]?
**A.** 12.7 µM

**Q.** And the GI50 [20]?
**A.** 1.84 µM

**Q.** And the TGI [20]?
**A.** 3.43 µM

**Q.** What about the GI50 [21] of the same compound?
**A.** 2.09 µM

**Q.** What about the TGI [21] of the same compound?
**A.** 3.88 µM

**Q.** And the GI50 [22]?
**A.** 1.48 µM

**Q.** And the TGI [22]?
**A.** 2.83 µM

**Q.** What about the TGI [23] of the same compound?
**A.** 2.78 µM

**Q.** And the GI50 [24]?
**A.** 2.2 µM

**Q.** What about the TGI [24] of the same compound?
**A.** 4.97 µM

**Q.** And the GI50 [25]?
**A.** 4.38 µM

**Q.** What about the TGI [25] of the same compound?
**A.** 10.9 µM

**Q.** And the GI50 [26]?
**A.** 3.08 µM

**Q.** And the TGI [26]?
**A.** 7.65 µM

**Q.** And the GI50 [27]?
**A.** 1.8 µM

**Q.** What about the TGI [27] of the same compound?
**A.** 4.59 µM

**Q.** What about the GI50 [28] of the same compound?
**A.** 3.27 µM

**Q.** And the TGI [28]?
**A.** 11.2 µM

**Q.** And the GI50 [29]?
**A.** 3.46 µM

**Q.** And the TGI [29]?
**A.** 12.7 µM

**Q.** And the GI50 [30]?
**A.** 1.86 µM

**Q.** And the TGI [30]?
**A.** 4.78 µM

**Q.** What about the GI50 [31] of the same compound?
**A.** 8.87 µM

**Q.** What about the TGI [31] of the same compound?
**A.** 21 µM

**Q.** And the GI50 [32]?
**A.** 7.17 µM

**Q.** And the TGI [32]?
**A.** 19.7 µM

**Q.** And the GI50 [33]?
**A.** 4.4 µM

**Q.** What about the TGI [33] of the same compound?
**A.** 15.1 µM

**Q.** What about the GI50 [34] of the same compound?
**A.** 4.33 µM

**Q.** And the TGI [34]?
**A.** 16.6 µM

**Q.** What about the GI50 [35] of the same compound?
**A.** 8.87 µM

**Q.** What about the TGI [35] of the same compound?
**A.** 20.6 µM

**Q.** And the GI50 [36]?
**A.** 5.94 µM

**Q.** What about the TGI [36] of the same compound?
**A.** 18.2 µM

**Q.** And the GI50 [37]?
**A.** 4.04 µM

**Q.** What about the TGI [37] of the same compound?
**A.** 14 µM

**Q.** What about the GI50 [38] of the same compound?
**A.** 2.17 µM

**Q.** What about the TGI [38] of the same compound?
**A.** 4.97 µM

**Q.** And the GI50 [39]?
**A.** 2.78 µM

**Q.** And the TGI [39]?
**A.** 5.32 µM

**Q.** What about the GI50 [40] of the same compound?
**A.** 2.29 µM

**Q.** And the TGI [40]?
**A.** 5.12 µM

**Q.** And the GI50 [41]?
**A.** 5.08 µM

**Q.** And the TGI [41]?
**A.** 17.2 µM

**Q.** What about the GI50 [42] of the same compound?
**A.** 12.8 µM

**Q.** And the TGI [42]?
**A.** 25.5 µM

**Q.** And the GI50 [43]?
**A.** 3.27 µM

**Q.** What about the TGI [43] of the same compound?
**A.** 11.3 µM

**Q.** And the GI50 [44]?
**A.** 2.54 µM

**Q.** And the TGI [44]?
**A.** 7.63 µM

**Q.** What about the GI50 [45] of the same compound?
**A.** 1.49 µM

**Q.** And the TGI [45]?
**A.** 3.21 µM

**Q.** What about the GI50 [46] of the same compound?
**A.** 9.94 µM

**Q.** And the TGI [46]?
**A.** 21.6 µM

**Q.** What about the GI50 [47] of the same compound?
**A.** 12.6 µM

**Q.** What about the TGI [47] of the same compound?
**A.** 25.2 µM

**Q.** What about the GI50 [48] of the same compound?
**A.** 11.7 µM

**Q.** What about the TGI [48] of the same compound?
**A.** 24.1 µM

**Q.** And the GI50 [49]?
**A.** 2.69 µM

**Q.** And the TGI [49]?
**A.** 8.46 µM

**Q.** And the GI50 [50]?
**A.** 3.15 µM

**Q.** And the TGI [50]?
**A.** 4.65 µM

**Q.** What about the GI50 [51] of the same compound?
**A.** 12.5 µM

**Q.** And the TGI [51]?
**A.** 25.1 µM

**Q.** And the GI50 [52]?
**A.** 9.63 µM

**Q.** What about the TGI [52] of the same compound?
**A.** 21.4 µM

**Q.** And the GI50 [53]?
**A.** 4.07 µM

**Q.** And the TGI [53]?
**A.** 13.4 µM

**Q.** And the GI50 [54]?
**A.** 1.96 µM

**Q.** And the TGI [54]?
**A.** 3.61 µM

**Q.** What about the GI50 [55] of the same compound?
**A.** 5.22 µM

**Q.** And the TGI [55]?
**A.** 17.3 µM

**Q.** What about the GI50 [56] of the same compound?
**A.** 2.59 µM

**Q.** And the TGI [56]?
**A.** 7.34 µM
